Data reported in ChEMBL document CHEMBL4619814, “Identification and Development of 1,4-Diaryl-1,2,3-triazolo-Based Ureas as Novel FLT3 Inhibitors” (ACS Med Chem Lett, 2020).
Active and inactive are the calls of the source. The rule behind the calls is not given here.

Tests used:
MV4-11 [1] = assay: Induction of apoptosis in human MV4-11 cells assessed as viable cells at 20 nM incubated for 48 hrs by annexin V and 7-AAD staining based flow cytometry analysis (reference value: 90.47 %); assay type: functional; conditions: MV4-11, 48 h, read-out: Activity
[2] = tested on: Receptor-type tyrosine-protein kinase FLT3 (Homo sapiens), P36888 [UNDEFINED MUTATION]; assay: Inhibition of FLT3 ITD mutant expressed in human MV4-11 cells assessed as reduction in STAT5 level at 4 nM incubated for 6 hrs by Western blot analysis; assay type: cell-based
in vitro = conditions: mouse, BaF3 cells
Description: Cytotoxicity against human BAF3 cells assessed as growth inhibition incubated for 72 hrs by CCK8 assay

[3] = target: Receptor-type tyrosine-protein kinase FLT3 (Homo sapiens) (UniProt P36888); assay: Inhibition of FLT3 in human NB4 cells assessed as reduction in FLT3 phosphorylation at 0.8 to 500 nM incubated for 6 hrs by Western blot analysis; assay type: cell-based; conditions: NB-4
MV4-11 [4] = assay: Antitumor activity at human MV4-11 cells xenografted in CB17-SCID mouse assessed as tumor growth inhibition at 40 mg/kg, po administered for 10 days and measured on day 10 relative to control; assay type: functional; conditions: MV4-11, po, 240 h, read-out: TGI
[5] = target: Receptor-type tyrosine-protein kinase FLT3 (Homo sapiens, UniProt P36888, D835V/ITD)
Description: Binding affinity to recombinant human FLT3 ITD/D835V double mutant expressed in bacterial expression system by Kinomescan method

MV4-11 [6] = assay: Induction of cell cycle arrest in human MV4-11 cells assessed as G0/G1 phase at 20 nM incubated for 48 hrs by propidium iodide staining based flow cytometry analysis (reference value: 54.82 %); assay type: functional
NB-4 = assay: cells; conditions: Homo sapiens, NB-4, 72 h
Description: Cytotoxicity against human NB4 cells assessed as reduction in cell viability incubated for 72 hrs by CCK8 assay

[7] = tested on: Receptor-type tyrosine-protein kinase FLT3 (Homo sapiens), P36888 [UNDEFINED MUTATION]; conditions: MV4-11
Description: Inhibition of FLT3 ITD mutant expressed in human MV4-11 cells assessed as reduction in cell growth incubated for 72 hrs by CCK8 assay

[8] = AUC in Sprague-Dawley rat at 5 mg/kg, iv; assay type: ADME, organism-based; conditions: in vivo
MV4-11 [9] = assay: Induction of apoptosis in human MV4-11 cells assessed as necrotic cells at 4 nM incubated for 48 hrs by annexin V and 7-AAD staining based flow cytometry analysis (reference value: 0.91 %); assay type: functional
U-937 = assay: cells; conditions: Homo sapiens, U-937, 72 h
Description: Cytotoxicity against human U937 cells assessed as reduction in cell viability incubated for 72 hrs by CCK8 assay

[10] = target: Receptor-type tyrosine-protein kinase FLT3 (Homo sapiens, UniProt P36888, F691L/ITD)
Description: Binding affinity to recombinant human FLT3 ITD/F691L double mutant expressed in bacterial expression system by Kinomescan method

[11] = Toxicity in CB17-SCID mouse xenografted with human MV4-11 cells assessed as side effects at 10 to 40 mg/kg, po administered for 10 days and observed on day 10; assay type: organism-based; conditions: in vivo, 240 h
MV4-11 [12] = assay: Induction of apoptosis in human MV4-11 cells assessed as necrotic cells at 20 nM incubated for 48 hrs by annexin V and 7-AAD staining based flow cytometry analysis (reference value: 0.91 %); assay type: functional
[13] = target: Receptor-type tyrosine-protein kinase FLT3 (Homo sapiens, UniProt P36888, ITD)
Description: Binding affinity to recombinant human FLT3 ITD mutant expressed in bacterial expression system by Kinomescan method

[14] = target: T1, Receptor-type tyrosine-protein kinase FLT3 (Homo sapiens, UniProt P36888)
T1 sequence (P36888 whole entry): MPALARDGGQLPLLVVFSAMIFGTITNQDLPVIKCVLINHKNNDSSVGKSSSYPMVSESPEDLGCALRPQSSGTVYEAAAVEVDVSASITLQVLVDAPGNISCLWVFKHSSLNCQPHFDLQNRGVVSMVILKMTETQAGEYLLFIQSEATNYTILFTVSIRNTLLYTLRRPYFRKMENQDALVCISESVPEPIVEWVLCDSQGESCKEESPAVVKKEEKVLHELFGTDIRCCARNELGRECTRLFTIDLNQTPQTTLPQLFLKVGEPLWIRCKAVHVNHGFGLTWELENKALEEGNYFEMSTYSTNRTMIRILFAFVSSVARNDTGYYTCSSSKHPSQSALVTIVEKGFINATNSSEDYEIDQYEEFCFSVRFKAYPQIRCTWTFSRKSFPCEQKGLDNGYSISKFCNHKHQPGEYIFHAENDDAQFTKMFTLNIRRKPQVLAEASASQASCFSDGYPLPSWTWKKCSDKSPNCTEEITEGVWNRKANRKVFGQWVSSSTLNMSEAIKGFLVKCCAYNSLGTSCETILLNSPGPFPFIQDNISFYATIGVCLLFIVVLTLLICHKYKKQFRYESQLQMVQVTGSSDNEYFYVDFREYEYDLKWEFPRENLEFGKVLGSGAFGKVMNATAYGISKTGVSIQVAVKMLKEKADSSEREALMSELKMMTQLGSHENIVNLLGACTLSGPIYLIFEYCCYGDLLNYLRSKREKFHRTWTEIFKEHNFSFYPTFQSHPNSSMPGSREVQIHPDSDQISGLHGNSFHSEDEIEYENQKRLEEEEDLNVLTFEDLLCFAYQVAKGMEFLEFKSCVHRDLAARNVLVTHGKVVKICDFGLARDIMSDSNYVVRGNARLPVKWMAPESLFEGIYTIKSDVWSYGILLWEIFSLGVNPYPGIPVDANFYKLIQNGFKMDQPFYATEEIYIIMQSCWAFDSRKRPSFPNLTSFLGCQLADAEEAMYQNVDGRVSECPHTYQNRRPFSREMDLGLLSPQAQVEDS
Description: Binding affinity to recombinant human FLT3 (592 to 969 residues) expressed in bacterial expression system by Kinomescan method

MV4-11 [15] = assay: Induction of apoptosis in human MV4-11 cells assessed as early apoptotic cells at 100 nM incubated for 48 hrs by annexin V and 7-AAD staining based flow cytometry analysis (reference value: 6.36 %); assay type: functional

## CC(C)(C)c1cc(NC(=O)Nc2ccc(-c3cn(-c4ccc(OCCN5CCOCC5)cc4Cl)nn3)cc2)no1
MV4-11 [1]
  viability at 0.02 µM: 84%
[2]
  inhibition: Active
In vitro
  GI50 at 72 h: > 3000 nM
[3]
  inhibition: inactive
MV4-11 [4]
  inhibition in vivo at 40 mg/kg: 80.1%
[5]
  Kd: 10000 nM
MV4-11 [6]
  Activity: 87.8%
NB-4
  GI50: > 3000 nM
[7]
  GI50: 3 nM
[8]
  AUC: 21200 ng·h/mL
MV4-11 [9]
  Activity: 1.15%
U-937
  GI50: > 3000 nM
[10]
  Kd: 2400 nM
[11]
  Activity: Non-Toxic
MV4-11 [12]
  Activity: 1.09%
[13]
  Kd: 6.9 nM
[14]
  Kd: 3.5 nM
MV4-11 [15]
  Activity: 13.06%
